Assay results reported in patent US10428134B2, “Immunoglobulins and uses thereof” (JANSSEN PHARMACEUTICA NV, priority 2016, dated 2019).

Test: Repeat dosing in DIO mice: food intake, body weight, body composition
Format: in vivo, mouse
Details: 0.3 nmol/kg s.c. daily
Description: To control for the dosing frequency, all animals were dosed daily. Dosing frequency was determined on the basis of DIO mouse PK data for compound 2 and dulaglutide. Animals in the dulaglutide group received this drug daily. The vehicle-treated animals received vehicle daily. […] The day prior to initiating of dosing, animals were weighed and grouped by body weight. […].
Beginning 24-hr after the first dosing, three groups of mice were pair-fed (PF) to the 1.0, 2.0, or 4.0 nmol/kg compound 2-treated animals. The amount of food in the hopper of pair-fed mice was adjusted to match the average food consumed in the previous 24 hours by mice in the compound treatment group to which they were being matched. All PF groups were dosed daily with vehicle. On the ninth day (or Day 10 for the pair-fed groups), animals were fasted for 6 hours and body weight and fasting glucose were measured. Blood was collected for measurements of insulin, FGF21 and plasma lipids. The food intake, body weight, body composition, fasting glucose, fasting insulin, fasting FGF21, and fasting plasma lipid data are shown in tables 20-26.

Substance: Dulaglutide: the GLP1R agonist, dulaglutide [reference compound]
- body composition: Fat % of Body Weight (after repeated dosing): 22.8 ± 1.2%
- body composition: Fat Mass (after repeated dosing): 7.6 ± 1.1 g
- body composition: Lean % of Body Weight (after repeated dosing): 61.0 ± 1.7%
- body composition: Lean Mass (after repeated dosing): 22.1 ± 0.3 g
- daily food intake (day 0): 3.1 ± 0.2 grams
- percent body weight change (day 0): 0.0%
- daily food intake (day 1): 1.5 ± 0.2 grams
- percent body weight change (day 1): −3.7 ± 0.3%
- daily food intake (day 2): 1.3 ± 0.2 grams
- percent body weight change (day 2): −6.2 ± 0.6%
- daily food intake (day 3): 1.7 ± 0.3 grams
- percent body weight change (day 3): −7.8 ± 0.8%
- daily food intake (day 4): 1.9 ± 0.2 grams
- percent body weight change (day 4): −9.2 ± 0.8%
- daily food intake (day 5): 2.1 ± 0.2 grams
- percent body weight change (day 5): −10.1 ± 0.8%
- daily food intake (day 6): 2.2 ± 0.2 grams
- percent body weight change (day 6): −10.2 ± 0.8%
- daily food intake (day 7): 2.3 ± 0.2 grams
- percent body weight change (day 7): −10.7 ± 1.0%
- daily food intake (day 8): 2.9 ± 0.4 grams
- percent body weight change (day 8): −11.1 ± 0.9%
- daily food intake (day 9): 2.5 ± 0.2 grams
- percent body weight change (day 9): −13.1 ± 1.1%
